Data published in US4218566A, “11-(2-Hydroxyethylthio) prostenoic acid E and F series derivatives” (American Cyanamid Company, priority 1978, dated 1980).
Like-named read-outs stand apart in the source and are kept apart here.

What was measured:
Format in all cases: in vivo
[1] = system: bronchospasms elicited by 5-hydroxytryptamine; experiment: bronchodilator activity, (modified) guinea pig Konzett procedure, 5-hydroxytryptamine-induced bronchospasm; details: Cavia porcellus, iv
Protocol: (§1) Bronchodilator activity is determined in guinea pigs against bronchospasms elicited by intravenous injections of 5-hydroxytryptamine, histamine of acetylcholine by the Konzett procedure. [See J. Lulling, P. Lievens, F. El Sayed and J. Prignot, Arzneimittel-Forschung, 18, 995 (1968)].
(§2) In the Table I which follows, bronchodilator activity for representative compounds of this invention against one or more of the three spasmogenic agents is expressed as an ED50 determined from the results obtained with three logarithemic cumulative intravenous doses.
(§3) The compounds dl-methyl ester of 11-deoxy-11α-(2-hydroxyethylthio)-15α-prostaglandin E2 (hereinafter called Compound I) and dl-methyl ester of 11-deoxy-11α-(2-hydroxyethoxy)-15α-prostaglandin E2 (hereinafter called Compound II) were submitted for testing in the modified Konzett procedure [J. Lulling, P. Lievens, F. El Sayed and J. Prignot, Arzneimittel-Forschung, 18, 995 (1968)].
(§4) The Modified Guinea Pig Konzett Assay measures the protective effects of experimental compounds against induced bronchospasms in guinea pigs.
(§5) Guinea pigs of either sex, weighing 300 to 500 g. are anesthetized by intraperitoneal injection of urethane at 1.5 g./kg. and curarized by intravenous injection of gallamine at 4 mg./kg. They are artificially ventilated through a tracheal cannula. Respiratory volume is adjusted according to the weight of the animal and the rate of the pump, in such a way as to obtain an insufflation pressure of 15-30 cm. of water.
(§6) The two jugular veins are catheterized, the first one being used for curarization and administration of the test compounds, the other one is used for the injection of the spasmogenic agent. Injections are made at selected speeds with a perfusion pump. The intratracheal pressure is measured with a transducer connected to the tracheal cannula and recorded on a polygraph.
(§7) Bronchial spasms are produced by intravenous injection of acetylcholine hydrochloride, histamine dihydrochloride or 5-hydroxy-tryptamine creatinine sulfate. The speed of injection of the spasmogenic solution and its concentration are chosen to give a dose (kept constant throughout the test) which is able to produce a consistant increase in the tracheal pressure. The injections are repeated every 5 minutes throughout the entire test by means of a program controlled automatic infusion syringe. When three successive control bronchoconstrictions of similar intensity are obtained, the animal is considered to be ready for the assay and receives the first dose of the test compound approximately two minutes later.
(§8) The compound being tested is suspended in 15% ethanol and injected through the jugular vein. The injection is repeated twice per animal at 15 minute intervals, so that three doses, in logarithmic progression, are assayed. Three spasms are recorded for each dose. The "bronchodilating" activity of each compound is assayed in at least four guinea pigs for each of the three spasmogenic substances. The amplitude of the three spasms (i.e. the difference between the maximum total tracheal pressure during the spasms and the normal insufflation pressure without spasm) following the administration of the drug are expressed in cm. of water.
(§9) When the average percent of variation (treated vs. control) of the first spasm following any dose of the compound reaches at least -50%, a regression line of the percent of variation versus the dose is computed in a semi-logarithmic system. The ED50 (dose producing a -50% variation) is then calculated. The same determination is made for the second and third spasm following the administration of a dose of the test compound if at some dose the variation percent reaches -50%.

[2] = system: bronchospasms elicited by histamine; experiment: bronchodilator activity, (modified) guinea pig Konzett procedure, histamine-induced bronchospasm; details: Cavia porcellus, iv
Protocol: as §1, §2, §3, §4, §5, §6, §7, §8, §9

[3] = system: bronchospasms elicited by acetylcholine; experiment: bronchodilator activity, (modified) guinea pig Konzett procedure, acetylcholine-induced bronchospasm; details: Cavia porcellus, iv
Protocol: as §1, §2, §3, §4, §5, §6, §7, §8, §9

[4] = system: bronchospasms; experiment: bronchodilator activity overall, guinea pig Konzett assay; details: for Potency (Range 0-4): score
Protocol: The natural PGE1, PGE2 and PGE3 compounds are potent in causing multiple biological responses, even at low doses. As a bronchodilator, the natural prostaglandins have an inconveniently short duration of activity.
as §1, §2, §3, §4, §5, §6, §7, §8, §9

[5] = 5-HT, first line of values for the compound, read-out: ED50 5-HT
[6] = 5-HT, second line of values for the compound, read-out: ED50 5-HT
[7] = 5-HT, third line of values for the compound, read-out: ED50 5-HT
[8] = histamine, first line of values for the compound, read-out: ED50 HIST.
[9] = histamine, second line of values for the compound, read-out: ED50 HIST.
[10] = acetylcholine, first line of values for the compound, read-out: ED50 ACH.
[11] = acetylcholine, second line of values for the compound, read-out: ED50 ACH.
[12] = spasm 1, read-out: ED50 vs. 5-Hydroxytryptamine Creatinine Sulfate
[13] = spasm 2, read-out: ED50 vs. 5-Hydroxytryptamine Creatinine Sulfate
[14] = spasm 3, read-out: ED50 vs. 5-Hydroxytryptamine Creatinine Sulfate
[15] = spasm 1, read-out: ED50 vs. Histamine Dihydrochloride
[16] = spasm 2, read-out: ED50 vs. Histamine Dihydrochloride
[17] = spasm 3, read-out: ED50 vs. Histamine Dihydrochloride
[18] = spasm 1, read-out: ED50 vs. Acetylcholine Hydrochloride
[19] = spasm 2, read-out: ED50 vs. Acetylcholine Hydrochloride

**Q.** For `CCCCC[C@H](O)/C=C/[C@H]1C(SCCO)CC(=O)[C@@H]1CCCCCCC(=O)O` (stereo partly drawn) [Example 228, Nat. 11α/β-(2-hydroxyethylthio)-15α-hydroxy-9-oxo-13-transprostenoic acid], which ED50 [1, 5] is on record?
**A.** Its ED50 is 0.0055 mg/kg.

**Q.** What about the ED50 [1, 6] of the same compound?
**A.** The ED50 was 0.034 mg/kg.

**Q.** And the ED50 [1, 7]?
**A.** The ED50 was 0.078 mg/kg.

**Q.** What about the ED50 [2, 8] of the same compound?
**A.** The ED50 was 0.0047 mg/kg.

**Q.** What about the ED50 [2, 9] of the same compound?
**A.** Its ED50 is 0.036 mg/kg.

**Q.** And the ED50 ([2]; histamine, third line of values for the compound, read-out: ED50 HIST.)?
**A.** Its ED50 is 0.071 mg/kg.

**Q.** What about the ED50 [3, 10] of the same compound?
**A.** The ED50 was 0.011 mg/kg.

**Q.** What about the ED50 [3, 11] of the same compound?
**A.** Its ED50 is 0.061 mg/kg.

**Q.** And the ED50 ([3]; acetylcholine, third line of values for the compound, read-out: ED50 ACH.)?
**A.** Its ED50 is 0.221 mg/kg.

**Q.** And the “Potency (Range 0-4)” value [4]?
**A.** The value was 4.

**Q.** Which ED50 [1, 5] does the source give for `CCCCC(C)(O)C/C=C/C1C(SCCO)CC(=O)C1C/C=C\CCCC(=O)O` (stereo not drawn) [Example 225, 11α/β-(2-hydroxyethylthio)-16-hydroxy-16-methyl-9-oxo-5-cis,13-trans-prostadienoic acid] here?
**A.** Its ED50 is 0.017 mg/kg.

**Q.** What about the ED50 [1, 6] of the same compound?
**A.** Its ED50 is 0.077 mg/kg.

**Q.** What about the ED50 [1, 7] of the same compound?
**A.** Its ED50 is 0.257 mg/kg.

**Q.** And the ED50 [2, 8]?
**A.** The ED50 was 0.02 mg/kg.

**Q.** And the ED50 [2, 9]?
**A.** The ED50 was 0.108 mg/kg.

**Q.** What about the ED50 [3, 10] of the same compound?
**A.** The ED50 was 0.034 mg/kg.

**Q.** And the “Potency (Range 0-4)” value [4]?
**A.** The value was 3.

**Q.** What does the source list for `CCCCC(O)C/C=C/C1C(SCCO)CC(=O)C1CCCCCCC(=O)O` (stereo not drawn) [Example 226, 11α/β(2-hydroxyethylthio)-16-hydroxy-9-oxo-13-trans-prostenoic acid]?
**A.** ED50 [1, 5]: 0.019 mg/kg; ED50 [1, 6]: 0.082 mg/kg; ED50 [1, 7]: 0.288 mg/kg; ED50 [2, 8]: 0.0195 mg/kg; ED50 [2, 9]: 0.15 mg/kg; ED50 [3, 10]: 0.053 mg/kg; Potency (Range 0-4) [4]: 3

**Q.** How did the ED50 [1, 12] turn out when `CCCCC[C@H](O)/C=C/[C@H]1[C@H](OCCO)CC(=O)[C@@H]1C/C=C\CCCC(=O)OC` (relative stereo) [Compound II, dl-methyl ester of 11-deoxy-11α-(2-hydroxyethoxy)-15α-prostaglandin E2, reference compound] was run?
**A.** Its ED50 is 0.119 mg/kg.

**Q.** What about the ED50 [1, 13] of the same compound?
**A.** The ED50 was 0.495 mg/kg.

**Q.** What about the ED50 [1, 14] of the same compound?
**A.** The ED50 was 1.28 mg/kg.

**Q.** What about the ED50 [2, 15] of the same compound?
**A.** Its ED50 is 0.152 mg/kg.

**Q.** And the ED50 [2, 16]?
**A.** Its ED50 is 0.707 mg/kg.

**Q.** What about the ED50 [2, 17] of the same compound?
**A.** Its ED50 is 1.46 mg/kg.

**Q.** What about the ED50 [3, 18] of the same compound?
**A.** The ED50 was 0.506 mg/kg.

**Q.** And the ED50 [3, 19]?
**A.** The ED50 was 3.31 mg/kg.

**Q.** Which ED50 [1, 5] does the source give for `CCCCC[C@H](O)/C=C/[C@H]1C(SCCO)CC(=O)[C@@H]1C/C=C\CCCC(=O)OC` (stereo partly drawn) [Example 223, Methyl Nat. 15α-hydroxy-9-oxo-11α/β(2-hydroxyethylthio)-5-cis,13-trans-prostadienoate] here?
**A.** Its ED50 is 0.0088 mg/kg.

**Q.** And the ED50 [2, 8]?
**A.** Its ED50 is 0.00424 mg/kg.

**Q.** And the ED50 [2, 9]?
**A.** The ED50 was 0.0442 mg/kg.

**Q.** And the ED50 [3, 10]?
**A.** The ED50 was 0.0275 mg/kg.

**Q.** What about the ED50 [3, 11] of the same compound?
**A.** The ED50 was 0.391 mg/kg.

**Q.** What about the “Potency (Range 0-4)” value [4] of the same compound?
**A.** Its value is 4.

**Q.** Which ED50 [1, 5] does the source give for `CCCCC[C@H](O)/C=C/[C@H]1[C@@H](SCCO)CC(=O)[C@@H]1C/C=C\CCCC(=O)OC` [methyl nat.-11β(2-hydroxyethylthio)-15α-hydroxy-9-oxo-5-cis,13-trans prostadienoate] here?
**A.** Its ED50 is 0.06 mg/kg.

**Q.** What about the ED50 [2, 8] of the same compound?
**A.** Its ED50 is 0.0455 mg/kg.

**Q.** And the ED50 [3, 10]?
**A.** Its ED50 is 0.0628 mg/kg.

**Q.** What about the ED50 [3, 11] of the same compound?
**A.** Its ED50 is 0.671 mg/kg.

**Q.** And the “Potency (Range 0-4)” value [4]?
**A.** Its value is 4.

**Q.** What does the source list for `CCCCC[C@H](O)/C=C/[C@H]1[C@H](SCCO)CC(=O)[C@@H]1C/C=C\CCCC(=O)OC` [Methyl Nat.-11α-(2-hydroxyethylthio)-15α-hydroxy-9-oxo-5-cis,13-trans-prostadienoate]?
**A.** ED50 [1, 5]: 0.0059 mg/kg; ED50 [1, 6]: 0.035 mg/kg; ED50 [2, 8]: 0.00487 mg/kg; ED50 [3, 10]: 0.0111 mg/kg; Potency (Range 0-4) [4]: 4

**Q.** Which results are given for `CCCCC[C@H](O)/C=C/[C@H]1[C@H](SCCO)CC(=O)[C@@H]1C/C=C\CCCC(=O)OC` (relative stereo) [Compound I, dl-methyl ester of 11-deoxy-11α-(2-hydroxyethylthio)-15α-prostaglandin E2]?
**A.** ED50 [1, 12]: 0.0176 mg/kg; ED50 [1, 13]: 0.0629 mg/kg; ED50 [1, 14]: 0.153 mg/kg; ED50 [2, 15]: 0.0157 mg/kg; ED50 [2, 16]: 0.0671 mg/kg; ED50 [2, 17]: 0.452 mg/kg; ED50 [3, 18]: 0.033 mg/kg; ED50 [3, 19]: 0.289 mg/kg; bronchodilator potency of Compound I compared with Compound II, statistical analysis ([4]; Compound I vs Compound II): significantly more potent than Compound II as a bronchodilator
